Test results taken from PMC8253220, “Molecular design, synthesis and in vitro biological evaluation of thienopyrimidine–hydroxamic acids as chimeric kinase HDAC inhibitors: a challenging approach to combat cancer” (Journal of Enzyme Inhibition and Medicinal Chemistry, 2021).
Values joined by “and” are separate entries in the source; they are usually repeats but may differ in a detail not shown here. Identical values can stand only once.

Key:
Assay in all cases: NCI one-dose screen
Format in all cases: cell-based, human
[1] = system: 786-0; details: Renal 786-0, 10 µM single dose
In short: (§1)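 One concentration (10 μM) applied to each line of the full NCI-60 panel; percent growth compared against untreated cells.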

[2] = system: ACHN; details: Renal ACHN, 10 µM single dose
In short: as §1

[3] = system: BT-549; details: Breast BT-549, 10 µM single dose
In short: as §1

[4] = system: CAKI-1; details: Renal CAKI-1, 10 µM single dose
In short: as §1

[5] = system: COLO 205; details: Colon COLO 205, 10 µM single dose
In short: as §1

[6] = system: HCC-2998; details: Colon HCC-2998, 10 µM single dose
In short: as §1

[7] = system: HCT-116; details: Colon HCT-116, 10 µM single dose
In short: as §1

[8] = system: HL-60(TB); details: Leukemia HL-60(TB), 10 µM single dose
In short: (§2)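 At 10 μM, a single concentration, compounds were evaluated for antiproliferative effect in the NCI 60-line screen, with growth expressed relative to untreated control cells.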

[9] = system: HOP-92; details: NSCLC HOP-92, 10 µM single dose
In short: as §1

[10] = system: K-562; details: Leukemia K-562, 10 µM single dose
In short: as §1

[11] = system: KM12; details: Colon KM12, 10 µM single dose
In short: as §2

[12] = system: LOX IMVI; details: Melanoma LOX IMVI, 10 µM single dose
In short: as §1

[13] = system: MALME-3M; details: Melanoma MALME-3M, 10 µM single dose
In short: as §1

[14] = system: MCF7; details: Breast MCF7, 10 µM single dose
In short: as §2

[15] = system: MDA-MB-231/ATCC; details: Breast MDA-MB-231/ATCC, 10 µM single dose
In short: as §1

[16] = system: MDA-MB-435; details: Melanoma MDA-MB-435, 10 µM single dose
In short: as §1

[17] = system: NCI-H23; details: NSCLC NCI-H23, 10 µM single dose
In short: as §2

[18] = system: NCI-H322M; details: NSCLC NCI-H322M, 10 µM single dose
In short: as §1

[19] = system: NCI-H460; details: NSCLC NCI-H460, 10 µM single dose
In short: as §1

[20] = system: NCI-H522; details: NSCLC NCI-H522, 10 µM single dose
In short: (§3)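 Following the standard NCI-60 protocol, compounds were applied once at 10 μM to all 60 cancer lines. Read-out is percent growth versus untreated controls, expressed as inhibition %.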

[21] = system: OVCAR-3; details: Ovarian OVCAR-3, 10 µM single dose
In short: as §1

[22] = system: OVCAR-5; details: Ovarian OVCAR-5, 10 µM single dose
In short: as §1

[23] = system: OVCAR-8; details: Ovarian OVCAR-8, 10 µM single dose
In short: as §1

[24] = system: PC-3; details: Prostate PC-3, 10 µM single dose
In short: as §2

[25] = system: RPMI-8226; details: Leukemia RPMI-8226, 10 µM single dose
In short: as §1

[26] = system: SF-268; details: CNS SF-268, 10 µM single dose
In short: as §2

[27] = system: SF-295; details: CNS SF-295, 10 µM single dose
In short: as §1

[28] = system: SF-539; details: CNS SF-539, 10 µM single dose
In short: as §2

[29] = system: SK-MEL-28; details: Melanoma SK-MEL-28, 10 µM single dose
In short: as §2

[30] = system: SK-OV-3; details: Ovarian SK-OV-3, 10 µM single dose
In short: as §1

[31] = system: SN12C; details: Renal SN12C, 10 µM single dose
In short: as §1

[32] = system: SNB-19; details: CNS SNB-19, 10 µM single dose
In short: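 In vitro antiproliferative testing: NCI-60 panel, initial single dose 10 μM, inhibition % derived from percent growth of treated versus untreated control cells.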

[33] = system: SR; details: Leukemia SR, 10 µM single dose
In short: as §1

[34] = system: T-47D; details: Breast T-47D, 10 µM single dose
In short: as §1

[35] = system: TK-10; details: Renal TK-10, 10 µM single dose
In short: as §1

[36] = system: U251; details: CNS U251, 10 µM single dose
In short: as §3

[37] = system: UACC-257; details: Melanoma UACC-257, 10 µM single dose
In short: as §2

SMILES | Growth Percent [1] | Growth Percent [2] | Growth Percent [3] | Growth Percent [4] | Growth Percent [5] | Growth Percent [6] | Growth Percent [7] | Growth Percent [8] | Growth Percent [9] | Growth Percent [10] | Growth Percent [11] | Growth Percent [12] | Growth Percent [13] | Growth Percent [14] | Growth Percent [15] | Growth Percent [16] | Growth Percent [17] | Growth Percent [18] | Growth Percent [19] | Growth Percent [20] | also measured
Cc1c(C(=O)NCCCC(=O)NO)sc2ncnc(Nc3ccccc3)c12 [Compound 20b, N-(4-(hydroxyamino)-4-oxobutyl)-5-methyl-4-(phenylamino)thieno[2,3-d]pyrimidine-6-carboxamide] | 113.5% and 113.55% | 103.8% and 103.87% | 128.8% and 128.88% | 96.9% and 96.93% | 106.5% and 106.57% | 104.7% and 104.78% | 104.9% and 104.93% | 104.1% and 104.16% | 110.5% and 110.53% | 104.9% and 104.96% | 101.4% and 101.41% | 96.5% and 96.54% | 111.9% and 111.93% | 92.1% and 92.13% | 110.9% and 110.91% | 103.3% and 103.32% | 99.6% and 99.63% | 107.3% and 107.33% | 99.4% and 99.46% | 89.7% and 89.77% | Growth Percent [21]: 109.4% and 109.49%; Growth Percent [22]: 100.2% and 100.23%; Growth Percent [23]: 98.7%; Growth Percent [24]: 108%; Growth Percent [25]: 102.2%; Growth Percent [26]: 97.1% and 97.16%; Growth Percent [27]: 90.6% and 90.64%; Growth Percent [28]: 96.9% and 96.91%; Growth Percent [29]: 115.5% and 115.55%; Growth Percent [30]: 125.1% and 125.12%; Growth Percent [31]: 100.3% and 100.34%; Growth Percent [32]: 97.5% and 97.59%; Growth Percent [33]: 99.2% and 99.22%; Growth Percent [34]: 104.4% and 104.47%; Growth Percent [35]: 111.2% and 111.26%; Growth Percent [36]: 98.2% and 98.23%; Growth Percent [37]: 103.9% and 103.93%
Cc1c(C(=O)NO)sc2ncnc(Nc3ccc(NC(=O)Nc4ccccc4)cc3)c12 [Compound 7a, 1–(4-(6-(hydroxycarbamoyl)-5-methylthieno[2,3-d]pyrimidin-4-ylamino)phenyl)-3-phenylurea] | 95.9% and 95.93% | 102.3% and 102.35% | 87.6% | 91.6% and 91.67% | 106.8% and 106.84% | 99.3% and 99.38% | 93.8% and 93.86% | 102.2% and 102.25% | 117.3% and 117.36% | 105.9% and 105.92% | 94.8% and 94.85% | 90.5% and 90.57% | 89.5% and 89.51% | 90.7% and 90.78% | 91.1% and 91.12% | 102.0% and 102.09% | 101.19% | 98.4% and 98.47% | 100.3% and 100.39% | 92.0% and 92.04% | Growth Percent [21]: 105.4% and 105.48%; Growth Percent [22]: 105.3% and 105.35%; Growth Percent [23]: 106.3% and 106.33%; Growth Percent [24]: 97.3% and 97.34%; Growth Percent [25]: 105.4% and 105.45%; Growth Percent [26]: 91.7%; Growth Percent [27]: 96.2% and 96.23%; Growth Percent [28]: 96.0%; Growth Percent [29]: 104.3% and 104.39%; Growth Percent [30]: 122.7% and 122.74%; Growth Percent [31]: 102.8% and 102.86%; Growth Percent [32]: 100.2%; Growth Percent [33]: 99.1% and 99.16%; Growth Percent [34]: 95.7% and 95.72%; Growth Percent [35]: 108.5% and 108.59%; Growth Percent [36]: 89.3% and 89.34%; Growth Percent [37]: 115.5% and 115.56%
